# Target: T1, SHMT1-PEMT complex (Mus musculus, UniProt P50431+Q61907)
# T1 construct: native SHMT1-PEMT complex, co-immunoprecipitate / NP-40 lysate of mouse primary astrocytes; full length, untagged; direct SHMT1-PEMT contact not proven
# T1 sequence (P50431 1-478): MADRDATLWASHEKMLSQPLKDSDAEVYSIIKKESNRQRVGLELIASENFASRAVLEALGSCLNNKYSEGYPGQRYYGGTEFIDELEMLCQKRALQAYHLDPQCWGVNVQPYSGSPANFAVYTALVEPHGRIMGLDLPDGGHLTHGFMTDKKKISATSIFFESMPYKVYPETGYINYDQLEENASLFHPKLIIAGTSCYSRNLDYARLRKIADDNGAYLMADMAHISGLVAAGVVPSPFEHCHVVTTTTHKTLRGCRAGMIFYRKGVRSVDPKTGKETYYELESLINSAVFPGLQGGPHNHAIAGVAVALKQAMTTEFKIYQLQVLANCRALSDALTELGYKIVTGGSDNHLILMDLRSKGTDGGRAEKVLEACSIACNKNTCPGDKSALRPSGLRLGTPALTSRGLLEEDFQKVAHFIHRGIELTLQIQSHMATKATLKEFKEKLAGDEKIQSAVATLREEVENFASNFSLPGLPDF
# T1 sequence (Q61907 1-199): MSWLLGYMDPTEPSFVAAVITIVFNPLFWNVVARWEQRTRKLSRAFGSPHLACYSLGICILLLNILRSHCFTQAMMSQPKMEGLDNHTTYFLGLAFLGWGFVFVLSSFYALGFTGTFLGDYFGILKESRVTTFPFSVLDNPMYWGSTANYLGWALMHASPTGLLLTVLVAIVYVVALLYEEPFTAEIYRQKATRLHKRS
# Experiment: CETSA and DARTS of co-IP samples, Western blot
# Assay type: biochemical
# Conditions: 10 µM isoorientin; astrocytes with MPP+ 24 h; heating at 37-67 °C 3 min; protease K digestion 1:400-1:3200; either chain may hold the compound
compound,measurement,value
"O=c1cc(-c2ccc(O)c(O)c2)oc2cc(O)c([C@@H]3O[C@H](CO)[C@@H](O)[C@H](O)[C@H]3O)c(O)c12 [TMA0698, Isoorientin]","CETSA and DARTS of co-IP samples, Western blot",we found that Iso significantly promoted SHMT1 and PEMT protein stability

# Source: publication PMC12866788, “Alternative Pathway for Methyl Supply through the Coupling of SHMT1 and PEMT to Maintain Astrocytic Homeostasis in Parkinson's Disease” (Advanced Science, 2025)
